# According to paper PMC7419507, “In vitro Cas9-assisted editing of modular polyketide synthase genes to produce desired natural product derivatives” (Nature Communications, 2020):
# Where “and” joins values, the source holds several entries; their conditions need not be identical. Identical values can stand only once.
# Experiments:
# [1] = system: malignant pleural mesothelioma MESO-1 cells; assay: Cytotoxicity assay (CellTiter-Glo, 72 h), MESO-1; type: cell-based; conditions: raw replicate data
# Method in brief: (§1)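 Cells were seeded at 1000 cells/well and allowed 4 h at 37 °C, 5% CO2 before 2-fold compound dilutions in DMSO were added (0.5% final DMSO). After 72 h exposure, viability was read by CellTiter-Glo luminescence.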
# [2] = Cytotoxicity assay (CellTiter-Glo, 72 h), MESO-1; type: cell-based; conditions: human, MESO-1 malignant pleural mesothelioma cells, raw replicate data, read-out: MESO1 viability (%); for viability at 72 h, 9.53674e-05 uM: conc 9.53674e-5 uM; for viability at 72 h, 0.000190735 uM: conc 0.000190735 uM; for viability at 72 h, 0.00038147 uM: conc 0.00038147 uM; for viability at 72 h, 0.000762939 uM: conc 0.000762939 uM; for viability at 72 h, 0.00152588 uM: conc 0.00152588 uM; for viability at 72 h, 0.00305176 uM: conc 0.00305176 uM; for viability at 72 h, 0.00610352 uM: conc 0.00610352 uM; for viability at 72 h, 0.012207 uM: conc 0.012207 uM; for viability at 72 h, 0.0244141 uM: conc 0.0244141 uM; for viability at 72 h, 0.0488281 uM: conc 0.0488281 uM; for viability at 72 h, 0.0976562 uM: conc 0.0976562 uM; for viability at 72 h, 0.195312 uM: conc 0.195312 uM; for viability at 72 h, 0.390625 uM: conc 0.390625 uM; for viability at 72 h, 0.78125 uM: conc 0.78125 uM; for viability at 72 h, 1.5625 uM: conc 1.5625 uM; for viability at 72 h, 3.125 uM: conc 3.125 uM; for viability at 72 h, 6.25 uM: conc 6.25 uM; for viability at 72 h, 12.5 uM: conc 12.5 uM; for viability at 72 h, 25 uM: conc 25 uM; for viability at 72 h, 50 uM: conc 50 uM
# Method in brief: as §1
SMILES,MESO1 viability (%) ([1]; conc 9.53674e-5 uM),MESO1 viability (%) ([1]; conc 0.000190735 uM),MESO1 viability (%) ([1]; conc 0.00038147 uM),MESO1 viability (%) ([1]; conc 0.000762939 uM),MESO1 viability (%) ([1]; conc 0.00152588 uM),MESO1 viability (%) ([1]; conc 0.00305176 uM),MESO1 viability (%) ([1]; conc 0.00610352 uM),MESO1 viability (%) ([1]; conc 0.012207 uM),MESO1 viability (%) ([1]; conc 0.0244141 uM),MESO1 viability (%) ([1]; conc 0.0488281 uM),MESO1 viability (%) ([1]; conc 0.0976562 uM),MESO1 viability (%) ([1]; conc 0.195312 uM),MESO1 viability (%) ([1]; conc 0.390625 uM),MESO1 viability (%) ([1]; conc 0.78125 uM),MESO1 viability (%) ([1]; conc 1.5625 uM),MESO1 viability (%) ([1]; conc 3.125 uM),MESO1 viability (%) ([1]; conc 6.25 uM),MESO1 viability (%) ([1]; conc 12.5 uM),MESO1 viability (%) ([1]; conc 25 uM),MESO1 viability (%) ([1]; conc 50 uM),also measured
CO[C@@H]1/C=C/C=C/[C@@H](C)C[C@@H](C)C(=O)C[C@H](O)/C(C)=C/[C@@H](C)C(=O)C[C@@H]([C@H](C)C[C@@H]2CC[C@@H](O)[C@H](OC)C2)OC(=O)[C@@H]2CCCCN2C(=O)C(=O)[C@]2(O)O[C@@H](CC[C@H]2C)C1 [Compound 9],98.3% and 100.4%,90.7% and 98.1%,97.4% and 97.9%,94.8% and 94.3%,99.1% and 102.8%,92.2% and 94.8%,96.7% and 92.3%,91.8%,99.0% and 94.1%,84.2% and 90.6%,83.8% and 83.9%,74.7% and 76.1%,72.2% and 72.1%,64.8% and 71.9%,69.3% and 70.3%,69.9%,70.9% and 68.1%,63.1% and 61.3%,65.5% and 63.8%,61.4% and 51.1%,"viability at 72 h, 9.53674e-05 uM [2]: 101%; viability at 72 h, 0.000190735 uM [2]: 93.5%; viability at 72 h, 0.00038147 uM [2]: 95%; viability at 72 h, 0.000762939 uM [2]: 93.4%; viability at 72 h, 0.00152588 uM [2]: 100%; viability at 72 h, 0.00305176 uM [2]: 92.4%; viability at 72 h, 0.00610352 uM [2]: 95.6%; viability at 72 h, 0.012207 uM [2]: 89.8%; viability at 72 h, 0.0244141 uM [2]: 91%; viability at 72 h, 0.0488281 uM [2]: 82.4%; viability at 72 h, 0.0976562 uM [2]: 85.7%; viability at 72 h, 0.195312 uM [2]: 74.8%; viability at 72 h, 0.390625 uM [2]: 75.8%; viability at 72 h, 0.78125 uM [2]: 66.3%; viability at 72 h, 1.5625 uM [2]: 71.8%; viability at 72 h, 3.125 uM [2]: 65.2%; viability at 72 h, 6.25 uM [2]: 69.4%; viability at 72 h, 12.5 uM [2]: 63.3%; viability at 72 h, 25 uM [2]: 63.9%; viability at 72 h, 50 uM [2]: 53%"
"CO[C@H]1C[C@@H]2CC[C@@H](C)[C@@](O)(O2)C(=O)C(=O)N2CCCC[C@H]2C(=O)O[C@H]([C@H](C)C[C@@H]2CC[C@@H](O)[C@H](OC)C2)CC(=O)[C@H](C)/C=C(\C)[C@@H](O)CC(=O)[C@H](C)C[C@H](C)/C=C/C=C(C)/C=C/1C [Compound 2, 27-demethoxy-19-methyl rapamycin]",104.9%,103.1% and 96.1%,98.5% and 98.1%,110.7% and 97.2%,108.1% and 104.8%,97.8% and 100.1%,108.3% and 98.8%,101.9% and 99.1%,104.7% and 100.7%,104.5% and 103.1%,98.7% and 102.0%,104.9% and 106.8%,97.6% and 96.8%,95.1% and 98.4%,99.0% and 101.9%,94.6% and 96.8%,96.9% and 103.3%,98.9% and 92.4%,86.3% and 80.9%,1.2% and 1.3%,"viability at 72 h, 9.53674e-05 uM [2]: 101%; viability at 72 h, 0.000190735 uM [2]: 97.4%; viability at 72 h, 0.00038147 uM [2]: 96%; viability at 72 h, 0.000762939 uM [2]: 100%; viability at 72 h, 0.00152588 uM [2]: 97%; viability at 72 h, 0.00305176 uM [2]: 104%; viability at 72 h, 0.00610352 uM [2]: 105%; viability at 72 h, 0.012207 uM [2]: 103%; viability at 72 h, 0.0244141 uM [2]: 103%; viability at 72 h, 0.0488281 uM [2]: 102%; viability at 72 h, 0.0976562 uM [2]: 107%; viability at 72 h, 0.195312 uM [2]: 103%; viability at 72 h, 0.390625 uM [2]: 109%; viability at 72 h, 0.78125 uM [2]: 93.3%; viability at 72 h, 1.5625 uM [2]: 99.9%; viability at 72 h, 3.125 uM [2]: 97.7%; viability at 72 h, 6.25 uM [2]: 97.3%; viability at 72 h, 12.5 uM [2]: 98%; viability at 72 h, 25 uM [2]: 84%; viability at 72 h, 50 uM [2]: 2.4%"
CO[C@H]1C[C@@H]2CC[C@@H](C)[C@@](O)(O2)C(=O)C(=O)N2CCCC[C@H]2C(=O)O[C@H]([C@H](C)C[C@@H]2CC[C@@H](O)[C@H](OC)C2)CC(=O)[C@H](C)/C=C(\C)[C@@H](O)CC[C@H](C)/C=C/C=C/C=C/1C [Compound 7],102.2% and 99.0%,96.1%,98.4% and 104.2%,97.5%,94.3% and 98.4%,93.1% and 92.8%,98.2%,92.2% and 89.5%,87.8%,86.4% and 84.2%,76.6% and 76.8%,70.4% and 63.5%,69.2% and 71.3%,64.7% and 62.9%,70.0% and 72.7%,62.1% and 64.7%,67.5% and 72.2%,60.9% and 63.2%,63.3% and 65.2%,30.2% and 20.1%,"viability at 72 h, 9.53674e-05 uM [2]: 96.8%; viability at 72 h, 0.000190735 uM [2]: 92.7%; viability at 72 h, 0.00038147 uM [2]: 98.8%; viability at 72 h, 0.000762939 uM [2]: 94.4%; viability at 72 h, 0.00152588 uM [2]: 97.9%; viability at 72 h, 0.00305176 uM [2]: 90.7%; viability at 72 h, 0.00610352 uM [2]: 100%; viability at 72 h, 0.012207 uM [2]: 86%; viability at 72 h, 0.0244141 uM [2]: 90.4%; viability at 72 h, 0.0488281 uM [2]: 80.8%; viability at 72 h, 0.0976562 uM [2]: 78.6%; viability at 72 h, 0.195312 uM [2]: 68.6%; viability at 72 h, 0.390625 uM [2]: 71.6%; viability at 72 h, 0.78125 uM [2]: 67.7%; viability at 72 h, 1.5625 uM [2]: 70.1%; viability at 72 h, 3.125 uM [2]: 60.8%; viability at 72 h, 6.25 uM [2]: 67.3%; viability at 72 h, 12.5 uM [2]: 66.3%; viability at 72 h, 25 uM [2]: 64.4%; viability at 72 h, 50 uM [2]: 23.2%"
COC1CC2CCC(C)C(O)(O2)C(=O)C(=O)N2CCCCC2C(=O)OC(C(C)CC2CCC(O)C(OC)C2)CC(=O)C(C)C=C(C)C(O)CC(=O)C(C)C=C(C)C=CC=CC=C1C (stereo not shown) [Compound 14],99.4% and 103.8%,95.6% and 99.1%,104.7% and 94.5%,96.5%,101.1% and 98.7%,99.6% and 99.1%,100.1%,95.8% and 96.3%,100.3% and 106.1%,100.9% and 99.1%,96.4% and 97.3%,87.1% and 89.8%,94.1% and 98.7%,79.4% and 79.1%,71.5% and 77.1%,73.4% and 72.1%,74.3% and 73.5%,68.9% and 72.8%,69.4% and 68.8%,60.5% and 62.4%,"viability at 72 h, 9.53674e-05 uM [2]: 96.6%; viability at 72 h, 0.000190735 uM [2]: 97.8%; viability at 72 h, 0.00038147 uM [2]: 94.8%; viability at 72 h, 0.000762939 uM [2]: 104%; viability at 72 h, 0.00152588 uM [2]: 102%; viability at 72 h, 0.00305176 uM [2]: 94.6%; viability at 72 h, 0.00610352 uM [2]: 95.7%; viability at 72 h, 0.012207 uM [2]: 94.6%; viability at 72 h, 0.0244141 uM [2]: 94.7%; viability at 72 h, 0.0488281 uM [2]: 96.1%; viability at 72 h, 0.0976562 uM [2]: 102%; viability at 72 h, 0.195312 uM [2]: 90.3%; viability at 72 h, 0.390625 uM [2]: 93.7%; viability at 72 h, 0.78125 uM [2]: 79%; viability at 72 h, 1.5625 uM [2]: 79.3%; viability at 72 h, 3.125 uM [2]: 75%; viability at 72 h, 6.25 uM [2]: 77.6%; viability at 72 h, 12.5 uM [2]: 72.5%; viability at 72 h, 25 uM [2]: 74.6%; viability at 72 h, 50 uM [2]: 59.3%"
